In paper PMC4676015, “Variant fatty acid-like molecules Conjugation, novel approaches for extending the stability of therapeutic peptides” (Scientific Reports, 2015):

What was measured:
[1] = molecular target: T1, GLP-1 receptor (GLP-1R) (Rattus norvegicus, UniProt P32301); assay: GLP-1 receptor binding assay (cellular ELISA)
T1 construct: endogenous in cells; host or cells: rat INS-1 cells
T1 sequence (P32301 22-463): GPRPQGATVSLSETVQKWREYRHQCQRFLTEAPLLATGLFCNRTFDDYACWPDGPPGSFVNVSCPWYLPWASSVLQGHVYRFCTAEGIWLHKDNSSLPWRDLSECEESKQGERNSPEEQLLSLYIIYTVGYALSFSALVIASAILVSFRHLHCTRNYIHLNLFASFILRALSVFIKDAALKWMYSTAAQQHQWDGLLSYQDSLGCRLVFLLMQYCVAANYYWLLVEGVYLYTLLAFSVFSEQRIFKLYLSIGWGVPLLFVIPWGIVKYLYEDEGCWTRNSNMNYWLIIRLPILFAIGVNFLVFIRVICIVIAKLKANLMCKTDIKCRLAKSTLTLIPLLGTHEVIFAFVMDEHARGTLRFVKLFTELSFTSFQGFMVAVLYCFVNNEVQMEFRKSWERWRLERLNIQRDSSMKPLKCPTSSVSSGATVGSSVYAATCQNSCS
In short: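 Cells were fixed with 4% paraformaldehyde, quenched with 2% glycine (pH 7.5), then incubated with peptides for 2 h at 37 °C, washed and blocked with 5% BSA. Absorbance was read at 450 nm. Kd was fitted from peptide concentration versus absorbance.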

[2] = molecular target: T2, DPP IV enzyme (Homo sapiens, UniProt P27487); assay: Stability against DPP IV proteolysis with or without HSA; assay type: in vitro ADME
T2 construct: purchased Sigma-Aldrich
T2 sequence (P27487 whole entry, species assumed): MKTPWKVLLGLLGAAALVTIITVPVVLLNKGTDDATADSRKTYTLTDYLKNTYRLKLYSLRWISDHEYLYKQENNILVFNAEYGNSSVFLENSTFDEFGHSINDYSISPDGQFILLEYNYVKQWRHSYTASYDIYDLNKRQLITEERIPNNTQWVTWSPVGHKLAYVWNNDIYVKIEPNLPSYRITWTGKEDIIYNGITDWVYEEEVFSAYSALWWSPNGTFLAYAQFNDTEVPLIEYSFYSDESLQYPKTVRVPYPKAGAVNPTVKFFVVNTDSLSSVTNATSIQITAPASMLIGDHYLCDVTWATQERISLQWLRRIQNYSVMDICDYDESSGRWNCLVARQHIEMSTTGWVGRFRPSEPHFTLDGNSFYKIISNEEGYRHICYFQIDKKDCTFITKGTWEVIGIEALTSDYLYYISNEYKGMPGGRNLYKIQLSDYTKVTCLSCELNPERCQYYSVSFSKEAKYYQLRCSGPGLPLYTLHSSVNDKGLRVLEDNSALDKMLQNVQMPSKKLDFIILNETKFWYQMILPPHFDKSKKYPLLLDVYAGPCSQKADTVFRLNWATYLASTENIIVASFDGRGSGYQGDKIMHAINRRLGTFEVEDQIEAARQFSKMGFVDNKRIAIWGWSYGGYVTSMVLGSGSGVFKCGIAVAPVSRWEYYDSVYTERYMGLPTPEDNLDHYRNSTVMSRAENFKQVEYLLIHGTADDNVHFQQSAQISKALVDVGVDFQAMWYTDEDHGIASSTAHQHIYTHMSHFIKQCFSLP

[3] = test system: Wistar rats; assay: Single-dose glucoregulatory assay (glucose tolerance test); assay type: in vivo; settings: calculated from the single dose glucose tolerance test in rats
Method: In this assay, the derivatives were administered once, and the blood glucose levels were monitored over 120 h. It was presumed that the apparent half-lives of the derivatives could be obtained by this single-dose glucose tolerance test, which would be beneficial for the determination of the administration frequency in future long-term glucose tolerance tests. Each derivative (300 μg/kg body weight) was subcutaneously injected into fasting male Wistar rats (n = 7 per group) 30 min prior to glucose administration. GLP-1 and saline were injected into the control animals. Rats were given 2 g glucose/kg body weight via intraperitoneal injections. Blood was drawn from the tail vein, and glucose levels were measured using a glucometer 30 min after glucose administration. Chronic glucose injections (2 g/kg body weight) were administered 30 min prior to each blood glucose measurement time point during the 120-h experimental period.

[4] = test system: Wistar rats; assay: Toxicity study of compound 24 in Wistar rats (blood biochemistry, haematology); assay type: in vivo; settings: Wistar rats and Kunming mice, GLP guideline of China
Method: Wistar rats (n = 8) and Kunming mice (n = 30) were employed in this study to investigate the acute toxicity of compound 24. Compound 24 was intraperitoneally administered with three doses of 5, 15 and 50 mg/kg/2 days for 30 days. Controls received a similar volume of sodium dihydrogen phosphate. At the end of the experimental period, overnight fasted animals were sacrificed by cervical decapitation under light ether anesthesia and blood was collected, serum was separated by centrifuging at 3,000 rpm for 10 min. The serum was used for the assay of the biochemical parameters using Chemistry Analyzer […] (Vital, Netherlands).

[5] = Blood retention time measurement; settings: 500 μg/kg s.c., Wistar rats, n = 5; 0.5-96 h; GLP-1 (7–37) ELISA

With `CC[C@H](C)[C@H](NC(=O)[C@H](Cc1ccccc1)NC(=O)[C@H](CCC(=O)NCCCCCCCCCCCC(=O)O)NC(=O)[C@H](CCCCN)NC(=O)[C@H](C)NC(=O)[C@H](C)NC(=O)[C@H](CCC(N)=O)NC(=O)CNC(=O)[C@H](CCC(=O)O)NC(=O)[C@H](CC(C)C)NC(=O)[C@H](Cc1ccc(O)cc1)NC(=O)[C@H](CO)NC(=O)[C@H](CO)NC(=O)[C@@H](NC(=O)[C@H](CC(=O)O)NC(=O)[C@H](CO)NC(=O)[C@@H](NC(=O)[C@H](Cc1ccccc1)NC(=O)[C@@H](NC(=O)CNC(=O)[C@H](CCC(=O)O)NC(=O)[C@H](C)NC(=O)[C@@H](N)Cc1c[nH]cn1)[C@@H](C)O)[C@@H](C)O)C(C)C)C(=O)N[C@@H](C)C(=O)N[C@@H](Cc1c[nH]c2ccccc12)C(=O)N[C@@H](CC(C)C)C(=O)N[C@H](C(=O)N[C@@H](CCCCN)C(=O)NCC(=O)N[C@@H](CCCNC(=N)N)C(=O)NCC(=O)O)C(C)C` [compound 24] the Kd [1] was 17.6 ± 1.76 nM, the “detectability of full-length peptide at 24 h” value ([2]; DPP IV 0.1 mg/ml, pH 7.0, in the presence of human serum albumin (2%), peptide 1 mg/ml, 37 °C, GLP-1 (7–37) ELISA) was “still detectable at 24 h” and the “AUC0–24 h, amount of undigested GLP-1 fragments compared with wild-type GLP-1” value ([2]; DPP IV proteolysis solution, 37 °C, 0-24 h, GLP-1 (7–37) ELISA, P < 0.01) was “approximately 3.5 fold”. For the same compound, the “AUCGLP-1(7–37) in proteolysis solution compared to native GLP-1” value ([2]; DPP IV proteolysis solution, 37 °C, GLP-1 (7–37) ELISA, P < 0.01) was “significantly increased”, the “degradation rate against DPP IV compared with compounds 6 and 21, respectively” value ([2]; DPP IV proteolysis, same carbon chain length without free carboxyl group as comparator) was “significantly lower degradation rates” and the observed half-life [3] was 9.6 h. For the same compound, the “acute toxicity and blood biochemistry tests” value [4] was “no toxicity was observed” and the “increase of circulating amount (AUC GLP-1 (7-37)) compared with native GLP-1” value [5] was 2.7 fold.
